The values that follow come from patent US20220323406A1, “METHODS AND COMPOSITIONS FOR DIFFERENTIATING STEM CELLS” (Massachusetts Institute of Technology, priority 2019, published 2022).

The structures appear in SMILES notation. Structures can show the parent of a compound that is named as a salt.

In assay [1] the test system is ENR+CD organoids. Description: Primary screen: ATP (CellTiter-Glo 3D, CTG) cell number/viability, 2.5-D 384-well ENR+CD organoids.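 As to all read-outs here: compounds given at plating and again on day 3 over a 6-day differentiation from ENR+CV stem-cell-enriched precursors, ATP measured on day 6, plate median as control.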 The following applies: primary screen; for Z.CTG: standard z score.
Assay [2] concerns ENR+CD organoids (ISC to Paneth cell differentiation). Description: Primary screen: basal (non-stimulated) lysozyme secretion LYZ.NS, 2.5-D 384-well ENR+CD organoid differentiation. In kind it is cell-based, mouse. An excerpt:
(§1) High-throughput screening.

The test system is the same in assay [3]. Description: Primary screen: CCh-stimulated lysozyme secretion LYZ.S, 2.5-D 384-well ENR+CD organoid differentiation. In kind it is cell-based, mouse. Particulars: primary screen.
Excerpt: as §1

Setting [4] is: 1st dose row of the treatment (0.08 uM by row order; dose not reprinted).
The mark [5] stands for this setting: 2nd dose row of the treatment (0.40 uM by row order; dose not reprinted).
Where [6] appears, read: 3rd dose row of the treatment (2.00 uM by row order; dose not reprinted).
Where [7] appears, read: 4th dose row of the treatment (10.00 uM by row order; dose not reprinted).
Setting [8] is: dose 0.08 uM, FC relative to plate median.
Setting [9] is: dose 0.40 uM, FC relative to plate median.
Where [10] appears, read: dose 2.00 uM, FC relative to plate median.
Where [11] appears, read: dose 10.00 uM, FC relative to plate median.

For `COc1cc2nc(N3CCN(C(=O)C4COc5ccccc5O4)CC3)nc(N)c2cc1OC` (stereo not drawn) [Doxazosin Mesylate], the Dose.FC.CTG is on record as 0.072 log2 fold change in assay [1] (dose 0.08 uM), −0.015 log2 fold change in assay [1] (dose 0.40 uM), 0.146 log2 fold change in assay [1] (dose 2.00 uM) and 0.075 log2 fold change in assay [1] (dose 10.00 uM). The Dose.FC.LYZ.NS in assay [2] (primary screen, dose 0.08 uM) is given as 0.073 log2 fold change; in assay [2] (primary screen, dose 0.40 uM), 0.044 log2 fold change; in assay [2] (primary screen, dose 2.00 uM) it was 0.047 log2 fold change; in assay [2] (primary screen, dose 10.00 uM), 0.039 log2 fold change. For the same molecule, the Z.LYZ.NS in assay [2] (primary screen, standard z score, dose 0.08 uM) was 0.633; in assay [2] (primary screen, standard z score, dose 0.40 uM), 0.387; in assay [2] (primary screen, standard z score, dose 2.00 uM), 0.413; in assay [2] (primary screen, standard z score, dose 10.00 uM) it was 0.340. The Dose.FC.LYZ.S in assay [3] (dose 0.08 uM) stood at 0.093 log2 fold change; in assay [3] (dose 0.40 uM), 0.084 log2 fold change; in assay [3] (dose 2.00 uM), 0.030 log2 fold change; in assay [3] (dose 10.00 uM) it was 0.015 log2 fold change.

Consider `C=C1C(=O)O[C@H]2[C@H]1CC/C(C)=C/CC[C@@]1(C)O[C@@H]21` [(−)-Parthenolide], for which the “SSMD.CTG.Rep (strictly standardized mean difference)” value was determined as 0.498 in assay [1] (setting [4]), 0.736 in assay [1] (setting [5]), 0.482 in assay [1] (setting [6]) and 0.257 in assay [1] (setting [7]). Further, the Dose.FC.CTG in assay [1] (dose 0.08 uM) amounted to 0.135 log2 fold change; in assay [1] (dose 0.40 uM) it was 0.228 log2 fold change; in assay [1] (dose 2.00 uM) it was 0.157 log2 fold change; in assay [1] (dose 10.00 uM) it was 0.157 log2 fold change. The “Z.CTG (standard z score)” value in assay [1] (dose 0.08 uM) was determined as 0.322; in assay [1] (dose 0.40 uM), 0.544; in assay [1] (dose 2.00 uM) it was 0.376; in assay [1] (dose 10.00 uM) it was 0.374. In addition, the “SSMD.LYZ.NS_Rep (strictly standardized mean difference)” value turned out to be 0.601 in assay [2] (primary screen, 1st dose row of the treatment (0.08 uM by row order; dose not reprinted)); 0.480 in assay [2] (primary screen, 2nd dose row of the treatment (0.40 uM by row order; dose not reprinted)); 0.920 in assay [2] (primary screen, 3rd dose row of the treatment (2.00 uM by row order; dose not reprinted)); 0.998 in assay [2] (primary screen, 4th dose row of the treatment (10.00 uM by row order; dose not reprinted)). Moreover, the Dose.FC.LYZ.NS in assay [2] (primary screen, dose 0.08 uM) stood at 0.058 log2 fold change; in assay [2] (primary screen, dose 0.40 uM), 0.067 log2 fold change; in assay [2] (primary screen, dose 2.00 uM), 0.089 log2 fold change; in assay [2] (primary screen, dose 10.00 uM), 0.133 log2 fold change. In addition, the “Z.LYZ.NS (standard z score)” value in assay [2] (primary screen, dose 0.08 uM) came to 0.506; in assay [2] (primary screen, dose 0.40 uM) it was 0.583; in assay [2] (primary screen, dose 2.00 uM), 0.776; in assay [2] (primary screen, dose 10.00 uM), 1.159. Also, the “SSMD.LYZ.S_Rep (strictly standardized mean difference)” value worked out at 0.679 in assay [3] (setting [4]), 0.763 in assay [3] (setting [5]), 0.506 in assay [3] (setting [6]) and 0.345 in assay [3] (setting [7]). Further, the “Z.LYZ.S (standard z score)” value is recorded as 0.799 in assay [3] (setting [4]), 1.067 in assay [3] (setting [5]), 0.441 in assay [3] (setting [6]) and 0.530 in assay [3] (setting [7]). Besides, the Dose.FC.LYZ.S in assay [3] (dose 0.08 uM) is recorded as 0.124 log2 fold change; in assay [3] (dose 0.40 uM), 0.165 log2 fold change; in assay [3] (dose 2.00 uM), 0.068 log2 fold change; in assay [3] (dose 10.00 uM), 0.082 log2 fold change.

Regarding `CC[C@@H]1C(=O)N(C)c2cnc(Nc3ccc(C(=O)NC4CCN(C)CC4)cc3OC)nc2N1C1CCCC1` [BI 2536], the Dose.FC.CTG is reported as 0.029 log2 fold change in assay [1] (dose 0.08 uM), −0.534 log2 fold change in assay [1] (dose 0.40 uM), −0.511 log2 fold change in assay [1] (dose 2.00 uM) and −1.028 log2 fold change in assay [1] (dose 10.00 uM). The Dose.FC.LYZ.NS is −0.104 log2 fold change in assay [2] (primary screen, dose 0.08 uM); −0.129 log2 fold change in assay [2] (primary screen, dose 0.40 uM); −0.134 log2 fold change in assay [2] (primary screen, dose 2.00 uM); −0.109 log2 fold change in assay [2] (primary screen, dose 10.00 uM). The “Z.LYZ.NS (standard z score)” value in assay [2] (primary screen, dose 0.08 uM) is −0.907; in assay [2] (primary screen, dose 0.40 uM), −1.121; in assay [2] (primary screen, dose 2.00 uM), −1.168; in assay [2] (primary screen, dose 10.00 uM), −0.953. Also, the Dose.FC.LYZ.S was −0.163 log2 fold change in assay [3] (dose 0.08 uM), −0.220 log2 fold change in assay [3] (dose 0.40 uM), −0.224 log2 fold change in assay [3] (dose 2.00 uM) and −0.185 log2 fold change in assay [3] (dose 10.00 uM).

For the molecule `Cc1ccccc1C(C(=O)NC1CCCCC1)N(C(=O)Cn1ccnc1C)c1cccc(F)c1` (stereo not drawn) [AGI-5198], the Dose.FC.CTG is 0.309 log2 fold change in assay [1] (dose 0.08 uM), 0.154 log2 fold change in assay [1] (dose 0.40 uM), 0.281 log2 fold change in assay [1] (dose 2.00 uM) and 0.336 log2 fold change in assay [1] (dose 10.00 uM). Besides, the Dose.FC.LYZ.NS is reported as 0.055 log2 fold change in assay [2] (primary screen, dose 0.08 uM); 0.042 log2 fold change in assay [2] (primary screen, dose 0.40 uM); 0.039 log2 fold change in assay [2] (primary screen, dose 2.00 uM); −0.007 log2 fold change in assay [2] (primary screen, dose 10.00 uM). The “Z.LYZ.NS (standard z score)” value in assay [2] (primary screen, dose 0.08 uM) is 0.482; in assay [2] (primary screen, dose 0.40 uM) it was 0.362; in assay [2] (primary screen, dose 2.00 uM), 0.342; in assay [2] (primary screen, dose 10.00 uM), −0.064. Also, the Dose.FC.LYZ.S is 0.092 log2 fold change in assay [3] (dose 0.08 uM), 0.185 log2 fold change in assay [3] (dose 0.40 uM), 0.073 log2 fold change in assay [3] (dose 2.00 uM) and −0.005 log2 fold change in assay [3] (dose 10.00 uM).

`CC(C)c1noc(N2CCC(COc3ccc(-c4ccc(S(C)(=O)=O)cc4)nc3)CC2)n1` [GSK1292263]: the “Dose.FC.CTG (log2 fold change)” value in assay [1] (dose 0.08 uM) came out at 0.161; in assay [1] (dose 0.40 uM), 0.192; in assay [1] (dose 2.00 uM), 0.224; in assay [1] (dose 10.00 uM), 0.196. The “Z.CTG (standard z score)” value in assay [1] (dose 0.08 uM) is 0.384; in assay [1] (dose 0.40 uM) it was 0.458; in assay [1] (dose 2.00 uM), 0.535; in assay [1] (dose 10.00 uM), 0.468. The “Dose.FC.LYZ.NS (log2 fold change)” value in assay [2] (primary screen, dose 0.08 uM) is recorded as 0.078; in assay [2] (primary screen, dose 0.40 uM) it was 0.050; in assay [2] (primary screen, dose 2.00 uM), 0.028; in assay [2] (primary screen, dose 10.00 uM), 0.020. For the same molecule, the “Z.LYZ.NS (standard z score)” value was 0.681 in assay [2] (primary screen, dose 0.08 uM); 0.434 in assay [2] (primary screen, dose 0.40 uM); 0.240 in assay [2] (primary screen, dose 2.00 uM); 0.173 in assay [2] (primary screen, dose 10.00 uM). The “Dose.FC.LYZ.S (log2 fold change)” value in assay [3] (dose 0.08 uM) is 0.111; in assay [3] (dose 0.40 uM) it was 0.101; in assay [3] (dose 2.00 uM), 0.060; in assay [3] (dose 10.00 uM), 0.027.

Take `COc1cc(-n2c(=S)[nH]c3ccccc3c2=O)c(Cl)cc1Cl` [Mdivi-1]: the “Dose.FC.CTG (log2 fold change)” value is 0.008 in assay [1] (dose 0.08 uM), −0.031 in assay [1] (dose 0.40 uM), −0.112 in assay [1] (dose 2.00 uM) and −0.527 in assay [1] (dose 10.00 uM). In addition, the “Z.CTG (standard z score)” value in assay [1] (dose 0.08 uM) is listed as 0.019; in assay [1] (dose 0.40 uM) it was −0.074; in assay [1] (dose 2.00 uM) it was −0.267; in assay [1] (dose 10.00 uM), −1.259. Also, the “Dose.FC.LYZ.NS (log2 fold change)” value is on record as 0.177 in assay [2] (primary screen, dose 0.08 uM); 0.156 in assay [2] (primary screen, dose 0.40 uM); −0.022 in assay [2] (primary screen, dose 2.00 uM); −0.268 in assay [2] (primary screen, dose 10.00 uM). For the same molecule, the “Z.LYZ.NS (standard z score)” value in assay [2] (primary screen, dose 0.08 uM) is given as 1.537; in assay [2] (primary screen, dose 0.40 uM), 1.358; in assay [2] (primary screen, dose 2.00 uM), −0.194; in assay [2] (primary screen, dose 10.00 uM), −2.333. The “Dose.FC.LYZ.S (log2 fold change)” value in assay [3] (dose 0.08 uM) is reported as 0.079; in assay [3] (dose 0.40 uM) it was 0.030; in assay [3] (dose 2.00 uM), −0.048; in assay [3] (dose 10.00 uM) it was −0.411.

As to `O=C(NCc1cccc(O)c1)Nc1nc(-c2ccncc2)cs1` [RKI-1447], the Dose.FC.CTG in assay [1] (setting [8]) was −0.397 log2 fold change; in assay [1] (setting [9]), −0.184 log2 fold change; in assay [1] (setting [10]), −0.226 log2 fold change; in assay [1] (setting [11]), −0.342 log2 fold change. Besides, the Z.CTG in assay [1] (dose 0.08 uM) was −0.948; in assay [1] (dose 0.40 uM), −0.441; in assay [1] (dose 2.00 uM), −0.540; in assay [1] (dose 10.00 uM), −0.816. The Dose.FC.LYZ.NS in assay [2] (primary screen, dose 0.08 uM, FC relative to plate median) is −0.006 log2 fold change; in assay [2] (primary screen, dose 0.40 uM, FC relative to plate median), −0.092 log2 fold change; in assay [2] (primary screen, dose 2.00 uM, FC relative to plate median) it was −0.009 log2 fold change; in assay [2] (primary screen, dose 10.00 uM, FC relative to plate median), −0.183 log2 fold change. Further, the Z.LYZ.NS in assay [2] (primary screen, dose 0.08 uM, standard z score) is reported as −0.055; in assay [2] (primary screen, dose 0.40 uM, standard z score) it was −0.803; in assay [2] (primary screen, dose 2.00 uM, standard z score) it was −0.077; in assay [2] (primary screen, dose 10.00 uM, standard z score) it was −1.594. In addition, the Dose.FC.LYZ.S in assay [3] (setting [8]) was −0.056 log2 fold change; in assay [3] (setting [9]), −0.064 log2 fold change; in assay [3] (setting [10]), −0.017 log2 fold change; in assay [3] (setting [11]) it was −0.297 log2 fold change.
